Data set [1] has as its target T1, Receptor-type tyrosine-protein phosphatase C (Homo sapiens) (UniProt P08575).
T1 sequence (whole entry): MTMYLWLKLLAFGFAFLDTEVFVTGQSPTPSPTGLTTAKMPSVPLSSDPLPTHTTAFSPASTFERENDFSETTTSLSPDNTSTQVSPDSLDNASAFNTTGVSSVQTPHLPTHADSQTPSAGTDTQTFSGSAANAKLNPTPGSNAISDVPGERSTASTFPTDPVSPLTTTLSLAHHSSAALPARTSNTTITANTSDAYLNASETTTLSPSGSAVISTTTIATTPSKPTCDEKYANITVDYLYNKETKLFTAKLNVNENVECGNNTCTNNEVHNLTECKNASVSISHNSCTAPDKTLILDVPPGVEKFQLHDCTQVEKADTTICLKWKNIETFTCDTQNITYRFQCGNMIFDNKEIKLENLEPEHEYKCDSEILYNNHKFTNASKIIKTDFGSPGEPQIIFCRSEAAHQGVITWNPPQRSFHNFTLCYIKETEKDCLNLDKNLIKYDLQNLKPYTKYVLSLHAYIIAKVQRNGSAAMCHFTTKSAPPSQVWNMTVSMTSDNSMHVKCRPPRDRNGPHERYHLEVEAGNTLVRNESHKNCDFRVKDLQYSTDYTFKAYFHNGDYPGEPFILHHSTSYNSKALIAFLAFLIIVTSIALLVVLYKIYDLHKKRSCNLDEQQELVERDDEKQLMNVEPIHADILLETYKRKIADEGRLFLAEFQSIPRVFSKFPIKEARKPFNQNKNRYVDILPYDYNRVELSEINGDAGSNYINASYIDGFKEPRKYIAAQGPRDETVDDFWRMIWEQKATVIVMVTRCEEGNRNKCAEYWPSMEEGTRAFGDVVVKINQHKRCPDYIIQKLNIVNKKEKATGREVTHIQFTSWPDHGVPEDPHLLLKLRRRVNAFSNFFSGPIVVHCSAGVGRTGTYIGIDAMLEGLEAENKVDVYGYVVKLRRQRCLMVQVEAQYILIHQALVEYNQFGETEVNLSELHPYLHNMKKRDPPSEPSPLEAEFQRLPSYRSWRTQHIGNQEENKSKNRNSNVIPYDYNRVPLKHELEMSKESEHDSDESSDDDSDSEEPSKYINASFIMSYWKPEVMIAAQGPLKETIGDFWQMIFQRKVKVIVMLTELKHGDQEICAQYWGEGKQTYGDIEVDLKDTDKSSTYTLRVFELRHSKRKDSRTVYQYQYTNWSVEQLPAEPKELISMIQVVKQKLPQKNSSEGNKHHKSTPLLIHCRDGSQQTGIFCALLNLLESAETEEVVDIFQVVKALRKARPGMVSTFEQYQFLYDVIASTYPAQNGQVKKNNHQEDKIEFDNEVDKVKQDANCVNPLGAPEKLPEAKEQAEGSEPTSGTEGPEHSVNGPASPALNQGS
As to the kind of experiment: (§1) Kinetic constant for CD45 protein tyrosine phosphatase inhibition was evaluated using malachite green assay.

In data set [2] the target is T1, Receptor-type tyrosine-protein phosphatase C (Homo sapiens). The data set can be described thus: (§2) Kinetic constant for CD45 Protein-tyrosine phosphatase inhibition was evaluated using malachite green assay.
Data set [3] has the same target. The data set can be described thus: Compound was evaluated for inhibitory activity against CD45 protein tyrosine phosphatase at a concentration of 200 uM; no activity.
Compound in data set [4]: CC(=O)N[C@@H](Cc1ccccc1)C(=O)N[C@H](C(=O)N[C@@H](C)C(=O)N[C@H](C(=O)N[C@@H](CCC(=O)O)C(=O)N1CCC[C@H]1C(=O)N[C@@H](CCC(N)=O)C(=O)N[C@@H](Cc1ccc(OP(=O)(O)O)cc1)C(=O)N[C@@H](CCC(N)=O)C(=O)N1CCC[C@H]1C(=O)NCC(=O)N[C@@H](CCC(N)=O)C(=O)N[C@@H](CC(N)=O)C(=O)N[C@@H](CC(C)C)C(N)=O)[C@@H](C)O)[C@@H](C)O
The description is as §2.

Compound in data set [5]: CC(=O)N1CCC[C@H]1C(=O)N[C@@H](CCC(N)=O)C(=O)N[C@@H](Cc1ccc(OP(=O)(O)O)cc1)C(=O)N[C@@H](CCC(N)=O)C(=O)N1CCC[C@@H]1C(N)=O
The data set is described as §1.

Compound in data set [6]: CC(=O)N[C@@H](CCC(N)=O)C(=O)N[C@@H](Cc1ccc(OP(=O)(O)O)cc1)C(=O)N[C@@H](CCC(N)=O)C(=O)N1CCC[C@H]1C(=O)NCC(=O)N[C@@H](CCC(N)=O)C(=O)N[C@@H](CC(N)=O)C(=O)N[C@@H](CC(C)C)C(N)=O
Described as §1.

Compound in data set [7]: CC(=O)N[C@@H](CCC(=O)O)C(=O)N1CCC[C@H]1C(=O)N[C@@H](CCC(N)=O)C(=O)N[C@@H](Cc1ccc(OP(=O)(O)O)cc1)C(=O)N[C@@H](CCC(N)=O)C(=O)N1CCC[C@H]1C(=O)NCC(=O)N[C@@H](CCC(N)=O)C(=O)N[C@@H](CC(N)=O)C(=O)N[C@@H](CC(C)C)C(N)=O
Described as §1.

Compound in data set [8]: CC(=O)N[C@@H](CCC(N)=O)C(=O)N[C@@H](Cc1ccc(OP(=O)(O)O)cc1)C(=O)N[C@@H](CCC(N)=O)C(=O)N1CCC[C@@H]1C(N)=O
The description is as §1.

Compound in data set [9]: O=[N+]([O-])c1ccc(OP(=O)(O)O)cc1
The data set is described as §1.

Compound in data set [10]: CC(=O)N[C@@H](Cc1ccc(OP(=O)(O)O)cc1)C(N)=O
The data set is described as §1.

Compound in data set [11]: CC(=O)N1CCC[C@H]1C(=O)N[C@@H](CCC(N)=O)C(=O)N[C@@H](Cc1ccc(OP(=O)(O)O)cc1)C(=O)N[C@@H](CCC(N)=O)C(N)=O
Described as §1.

Compound in data set [12]: CC(=O)N[C@@H](C)C(=O)N[C@H](C(=O)N[C@@H](CCC(=O)O)C(=O)N1CCC[C@H]1C(=O)N[C@@H](CCC(N)=O)C(=O)N[C@@H](Cc1ccc(OP(=O)(O)O)cc1)C(=O)N[C@@H](CCC(N)=O)C(=O)N1CCC[C@H]1C(=O)NCC(=O)N[C@@H](CCC(N)=O)C(=O)N[C@@H](CC(N)=O)C(=O)N[C@@H](CC(C)C)C(N)=O)[C@@H](C)O
Described as §1.

Active and inactive are the calls of the source. The rule behind the calls is not given here. Non-standard residues stand in square brackets, D forms with d. Residues, ends and D or L forms follow the SMILES beside them. *: point of attachment. pY = N[C@@H](Cc1ccc(OP(=O)(O)O)cc1)C(=O)O; Cbz = O=C(OCc1ccccc1)*

With `CC(=O)N[C@@H](CCC(N)=O)C(=O)N[C@@H](Cc1ccc(OP(=O)(O)O)cc1)C(=O)N[C@@H](CCC(N)=O)C(=O)N1CCC[C@@H]1C(N)=O`, the k cat in [1] came to 3.95 s⁻¹. On to `CC(=O)N[C@@H](Cc1ccccc1)C(=O)N[C@H](C(=O)N[C@@H](C)C(=O)N[C@H](C(=O)N[C@@H](CCC(=O)O)C(=O)N1CCC[C@H]1C(=O)N[C@@H](CCC(N)=O)C(=O)N[C@@H](Cc1ccc(OP(=O)(O)O)cc1)C(=O)N[C@@H](CCC(N)=O)C(=O)N1CCC[C@H]1C(=O)NCC(=O)N[C@@H](CCC(N)=O)C(=O)N[C@@H](CC(N)=O)C(=O)N[C@@H](CC(C)C)C(N)=O)[C@@H](C)O)[C@@H](C)O` (Ac-FTATEPQ[pY]QPGQNL-NH2), for which, in data set [2], the k cat came out at 3.95 s⁻¹. With `NC(=O)[C@H](Cc1ccc(OC[C@H]2CO2)cc1)NC(=O)OCc1ccccc1`, the result in data set [3] was inactive. The molecule `CC(=O)N[C@@H](Cc1ccc(OP(=O)(O)O)cc1)C(N)=O` had a k cat in [1] of 3.95 s⁻¹. Regarding `NC(=O)[C@H](Cc1ccc(OC[C@@H]2CO2)cc1)NC(=O)OCc1ccccc1`, the outcome in [3] was inactive. Turning to `NC(=O)[C@H](Cc1ccc(O)cc1)NC(=O)OCc1ccccc1`, the result in data set [3] was inactive. Molecule `CC(=O)N[C@@H](CCC(N)=O)C(=O)N[C@@H](Cc1ccc(OP(=O)(O)O)cc1)C(=O)N[C@@H](CCC(N)=O)C(=O)N1CCC[C@H]1C(=O)NCC(=O)N[C@@H](CCC(N)=O)C(=O)N[C@@H](CC(N)=O)C(=O)N[C@@H](CC(C)C)C(N)=O` (Ac-Q[pY]QPGQNL-NH2) returned a k cat in [1] of 4.82 s⁻¹. Take `NC(=O)CC[C@H](NC(=O)[C@H](Cc1ccc(O)cc1)NC(=O)[C@H](CCC(N)=O)NC(=O)OCc1ccccc1)C(N)=O` (Cbz-Gln-Tyr-Gln-NH2): the outcome in data set [3] was inactive. `CC(=O)N1CCC[C@H]1C(=O)N[C@@H](CCC(N)=O)C(=O)N[C@@H](Cc1ccc(OP(=O)(O)O)cc1)C(=O)N[C@@H](CCC(N)=O)C(=O)N1CCC[C@@H]1C(N)=O` displayed a k cat in [1] of 3.95 s⁻¹. For the molecule `NC(=O)CC[C@H](NC(=O)[C@H](Cc1ccc(OC[C@@H]2CO2)cc1)NC(=O)[C@H](CCC(N)=O)NC(=O)OCc1ccccc1)C(N)=O`, in [3], the result was inactive. `CC(=O)N1CCC[C@H]1C(=O)N[C@@H](CCC(N)=O)C(=O)N[C@@H](Cc1ccc(OP(=O)(O)O)cc1)C(=O)N[C@@H](CCC(N)=O)C(N)=O` (Ac-PQ[pY]Q-NH2) registered a k cat in data set [1] of 3.95 s⁻¹. As to `NC(=O)[C@H](Cc1ccc(OP(=O)(O)CCl)cc1)NC(=O)OCc1ccccc1`, in [3], the outcome was inactive. Turning to `O=[N+]([O-])c1ccc(OP(=O)(O)O)cc1`, in [1], the k cat worked out at 3.95 s⁻¹.

In data set [1], `CC(=O)N[C@@H](C)C(=O)N[C@H](C(=O)N[C@@H](CCC(=O)O)C(=O)N1CCC[C@H]1C(=O)N[C@@H](CCC(N)=O)C(=O)N[C@@H](Cc1ccc(OP(=O)(O)O)cc1)C(=O)N[C@@H](CCC(N)=O)C(=O)N1CCC[C@H]1C(=O)NCC(=O)N[C@@H](CCC(N)=O)C(=O)N[C@@H](CC(N)=O)C(=O)N[C@@H](CC(C)C)C(N)=O)[C@@H](C)O` (Ac-ATEPQ[pY]QPGQNL-NH2) registered a k cat of 4.93 s⁻¹. For the molecule `NC(=O)[C@H](Cc1ccc(OC(=O)CCl)cc1)NC(=O)OCc1ccccc1`, the outcome in data set [3] was inactive. As to `CC(=O)N[C@@H](CCC(=O)O)C(=O)N1CCC[C@H]1C(=O)N[C@@H](CCC(N)=O)C(=O)N[C@@H](Cc1ccc(OP(=O)(O)O)cc1)C(=O)N[C@@H](CCC(N)=O)C(=O)N1CCC[C@H]1C(=O)NCC(=O)N[C@@H](CCC(N)=O)C(=O)N[C@@H](CC(N)=O)C(=O)N[C@@H](CC(C)C)C(N)=O` (Ac-EPQ[pY]QPGQNL-NH2), the k cat in [1] was 4.22 s⁻¹.

B1: Receptor-type tyrosine-protein phosphatase C (Homo sapiens), P08575 (protein)
chain: T1 sequence (whole entry)
In the case of B1, the Km in data set [4] worked out at 278 µM; in data set [5], 278 µM; in data set [6], 172 µM; in data set [7] it was 102 µM; in data set [8], 278 µM; in data set [9], 278 µM. The Km in data set [10] is 278 µM; in data set [11], 278 µM; in [12], 143 µM.

The record behind these values is ChEMBL document CHEMBL1128649, “CD45 protein tyrosine phosphatase: Determination of minimal peptide length for substrate recognition and synthesis of some tyrosine-based electrophiles as potential active-site directed irreversible inhibitors” (Bioorg Med Chem Lett, 1995).
